Source: US6887894B2, “Use of lipoic acid for improving the bioavailability of mineral salts” (BASF Aktiengesellschaft, priority 2000, dated 2005)
Marks after values point to notes of the source that are not given here. Blank lines part the entries; values can stand above or below the compound they belong to.

Legend:
[1] = in vivo; cited from earlier work
[2] = Study 1/Study 2: bioavailability of Zn lipoate and ZnSO4 in rats (Example 4, Comparison Example 1); format: in vivo; conditions: diet with 0.4% NaPA, high dose 20 mg Zn/kg of feed, 28 days
Procedure: Male Albino rats (Wistar) of an initial weight of 40 g were used. The animals were kept during each 28-day experimental period at a room temperature of 22° C., a relative humidity of approximately 55% and in a 12-hour light-dark cycle. The rats were housed individually in Makrolon cages with stainless steel bottoms which permitted controlled feed intake and quantitative collection of feces and urine. The feed was provided once a day at 8^00. The live mass of the rats was determined weekly, feces and urine were collected every day at 10^00 and 17^00. At the end of the experiment, the rats were decapitated after chloroform anesthesia. • 4.2 Description of the diets and experimental design
6 rats are used per experimental group. The mealy diets were administered ad lib. […] The control group (group 1) received the PA-free base diet.
The amounts of feces and urine produced separately in the metabolic cages are collected quantitatively every day and stored at −22° C. To avoid any losses of N in the urine collection vessels, 1 ml of 20% strength HCl (Suprapur) is added to each of the vessels daily. For further analysis, the sample material is freeze-dried for 48 h. • 4.3.2 Organ and tissue samples
The right femur, liver and testes are removed immediately after decapitation and complete exsanguination of the animals and the fresh mass is determined. The samples are sealed in plastic film and stored at −22° C. until further analysis. • 4.3.3 Blood
The rats are decapitated at the end of the experiment after complete narcosis with chloroform and the blood collected in heparinized plastic tubes. 40 I.U. of heparin sodium are introduced per ml of blood. […]
Zinc is determined by means of atomic absorption spectrophotometry (AAS) in an acetylene flame. • 4.5 Diagnosis of zinc status • 4.5.1 Determination of the plasma zinc concentration
The plasma zinc concentration is measured directly in the flame by means of AAS (Philips, PIJ 9400). […]
The enzyme activity is measured kinetically on a semimicroscale at a wavelength of 405 nm and 25° C. using a UV spectrophotometer. […]

[3] = Study 3: zootechnical parameters (feed intake, live weight) of growing rats; format: in vivo; conditions: for LW Gain: 28 days; for Live weight d0: initial weight
Procedure: (§1) 36 male Wistar albino rats (Harlan Winkelmann, Borchen) having an initial weight of 47.0±2.63 g were randomly divided into 6 groups each of 6 animals and fed the diets specified in Table 7 (experimental design) and Section 5.2 over a period of 28 days. The animals were kept individually in Makrolon cages on stainless grids under standard conditions (22° C., 55% relative humidity, 12 hour light/dark rhythm). Feed and deionized drinking water were available to the experimental animals ad libitum. During the 2nd and 3rd experimental week (metabolism phase) feces were collected quantitatively. After completion of the experimental phase (day 28), the animals were decapitated under CO2— anesthesia, exsanguinated and the tissue to be analyzed was removed. Groups Ib, IIb and IIIb here are Example 5, while Groups Ia, IIa and IIIa are Comparison Example 2.
Parameters used to estimate Zn availability were the zootechnical parameters feed intake, live weight development and live weight increase, apparent Zn absorption, alkaline phosphatase activity in plasma, plasma and femur Zn concentration and metallothionin concentration in liver tissue. • 5.2 Experimental diets
The experimental animals were fed semisynthetic diets based on high-purity components (corn starch, egg albumin protein, sucrose, soybean oil and cellulose) over a period of 28 days (see Table 8 for composition of the base diet), the experimental diets differing with respect to the type of zinc compound supplemented, the absolute Zn concentration and the phytic acid content (0.4% PA from NaPA, Sigma-Aldrich, Steinheim) (see Table 7).
Zn supplements used were Zn ((R)-α-Lipoat)2(H2O)2 from Example 1 (Example 5) and Zn sulfate (ZnSO4.7 H2O analytical grade, Merck, Darmstadt) (Comparison Example 2). The Zn concentrations of the experimental diets Ia-IIb were set at a level of 10 mg/kg of diet estimated to be marginal for growing rats, in order to enable investigation of the availability of the Zn supplements under test in the suboptimun supply range.

[4] = Study 3: Zn intake, fecal excretion and apparent absorption of zinc; format: in vivo; conditions: rats
Procedure: as §1
During the two-week metabolism phase, the rat feces were collected daily, adherent feed residues and other impurities were removed and the samples were stored at −20° C. At the end of the metabolism period the fecal weight was determined quantitatively and feces were then freeze-dried under vacuum over a period of 48 h (Gamma 1-20, Christ, Osterode). The dried samples were finely around using a domestic grinder (Moulinette electronic 89902) and stored at ambient temperature in PE bottles.
A sample aliquot of 1.5 g or the freeze-dried and ground fecal samples was dried for 24 h at 105° C. to remove residual water and then ashed in a muffle furnace at 450° C. for 21 h. The ash residue was dissolved by acid addition and then analyzed quantitatively. The Zn concentration in the fecal samples was determined by flame-AAS (Philips, PU 9400, Kassel). • 5.3.4 Diagnosis of Zn status
(§2) Zn absorption was calculated, without taking into account endogenous level as a difference between element […] and fecal excretion (=apparent absorption). Plasma Zn concentration was determined by AAS (Philips, PU 9400, Kassel). The samples were diluted with 0.1 M HCl in a ratio of 1:20 (v/v). The activity of the Zn metalloenzyme alkaline phosphatase (AP) (E.C. 3.1.3.1) wan assayed using the individual chemicals diethanolamine buffer and p-nitrophenyl phosphate according to the recommendations of the […] FÜR […] CHIMIE [German Clinical Chemistry Society] ([…] FÜR […] CHEMIE (1972). Standardmethode zur Bestimmung der Aktivität der alkalischen Phosphatase (AP) [Standard Method for Determining Alkaliur Phosphatase (AP) Activity]. Z. klin. Chem u. klin. Biochemie. 10, 191). • 5.3.5 Metallothionin in liver tissue

[5] = Study 3: Zn concentration in the femur; format: in vivo; conditions: rats, day 28
Procedure: as §1
The ash solutions were prepared by the principle of wet ashing. The sample material was admixed with 10 ml of 65% strength HNO3 (Merck, Suprapur) and then boiled under a reflux condenser in a digestion apparatus (Gerhardt SMA-20, Bonn). This oxidatively degraded the organic matrix and completely mineralized the test material. The Zn concentration was determined in the ash solutions by flame-AAS (Philips, PU 9400, Kassel). • 5.3.3 Analysis of the fecal samples

[6] = Study 3: plasma Zn concentration; format: in vivo; conditions: rats, day 28
Procedure: as §1
The samples were diluted with 0.1 M HCl in a ratio of 1:20 (v/v). […] CHIMIE [German Clinical Chemistry Society]

[7] = system: alkaline phosphatase (AP) (E.C. 3.1.3.1); experiment: Study 3: alkaline phosphatase activity in plasma; format: in vivo; conditions: rats, day 28
Procedure: as §1, §2

[8] = system: metallothionin; experiment: Study 3: metallothionin in liver tissue; format: in vivo; conditions: rats, day 28
Procedure: as §1
Total MT concentration in liver tissue was determined using the cadmium-binding method of EATON and TOAL (EATON, D. L., TOAL, B. F. (1982): Evaluation of the cadmium/hemoglobin affinity assay for the rapid determination of metallothionein in biological tissues. Toxicol Appl. Pharmacol. 66, 134-142) in a modification tested at the Giessen Institute (LEUNERT, V. (1994): Einfluβ von Zink sowie fetalem Kälberserum, bovinem Serumalbumin und calciummobilisierenden Rezeptoragonlsten auf Metallothionein in primär kultivierten Rattenhepatocyten [Effect of zinc and fecal calf serum, vine serum albumin and calcium-immobilizing receptor agonists on metallothionin in primary cultivations of rat hepatocytes]. Inaugural dissertation at the Institut für Tierernahrung und Ernährungse-physiologie [Institute of Animal Nutrition and Nutritional Physiology] of the University of Cicesen, Verlag Shaker, Aachen, PALLAUF et al. 1995). The protein content in liver homogenates war determined using the Lowry-Folin method (DAWSON, R. M. C. ELLIOTT, D C; JONES, K. M. (1986): Data for biochemical research, 3rd ed., Clarendon Press, New York, 543). • 5.3.5. Statistical analysis

[9] = 10 ppm Zn, PA-free diet (group I)
[10] = 20 ppm Zn + 0.4% PA (group III)

Structure (SMILES): O=C(O)c1ccccn1 [picolinic acid]
effects on Zn bioavailability (results of previous studies) [1]: not uniform

Apparent absorption of Zn ([4]; 10 ppm Zn + 0.4% PA (group II)): 43.0 ^a %
Apparent absorption of Zn (absolute) ([4]; 10 ppm Zn + 0.4% PA (group II)): 0.351 ^a mg/14 d
Fecal excretion of Zn ([4]; 10 ppm Zn + 0.4% PA (group II)): 0.484 ^a mg/14 d
Apparent absorption of Zn [4, 9]: 76.4 ^b %
Apparent absorption of Zn (absolute) [4, 9]: 1.35 ^bc mg/14 d
Fecal excretion of Zn [4, 9]: 0.411 ^a mg/14 d
Apparent absorption of Zn [4, 10]: 43.9 ^a %
Apparent absorption of Zn (absolute) [4, 10]: 1.13 ^b mg/14 d
Fecal excretion of Zn [4, 10]: 1.43 ^b mg/14 d
Zn concentration in Femur ([5]; 10 ppm Zn + 0.4% PA (group II)): 36.3 ^a μg/g FW
Zn concentration in Femur [5, 9]: 81.4 ^c μg/g FW
Zn concentration in Femur [5, 10]: 55.4 ^b μg/g FW
Zn concentration in Plasma ([6]; 10 ppm Zn + 0.4% PA (group II)): 0.57 ^a μg/ml
Zn concentration in Plasma [6, 9]: 1.11 ^bc μg/ml
Zn concentration in Plasma [6, 10]: 0.80 ^ac μg/ml
Structure (SMILES): O.O.O.O.O.O.O.O=S(=O)([O-])[O-].[Zn+2] [Zn sulfate, ZnSO4.7 H2O]
zinc deficiency symptoms (anorexia, alopecia, depression of growth) [2]: still present
Feed intake Total ([3]; 10 ppm Zn + 0.4% PA (group II)): 166 ^a g/28d
Feed intake d1-d7 ([3]; 10 ppm Zn + 0.4% PA (group II)): 37.4 ^a g
Feed intake d8-d14 ([3]; 10 ppm Zn + 0.4% PA (group II)): 42.3 ^a g
Feed intake d15-d21 ([3]; 10 ppm Zn + 0.4% PA (group II)): 40.5 ^a g
Feed intake d22-d28 ([3]; 10 ppm Zn + 0.4% PA (group II)): 45.3 ^a g
Live weight d7 ([3]; 10 ppm Zn + 0.4% PA (group II)): 62.0^a g
Live weight d14 ([3]; 10 ppm Zn + 0.4% PA (group II)): 84.6^a g
Live weight d21 ([3]; 10 ppm Zn + 0.4% PA (group II)): 94.2^a g
Live weight d28 ([3]; 10 ppm Zn + 0.4% PA (group II)): 106.5^a g
LW Gain ([3]; 10 ppm Zn + 0.4% PA (group II)): 60.7^a g
Live weight d0 ([3]; 10 ppm Zn + 0.4% PA (group II)): 45.8 g
Feed intake Total [3, 9]: 272 ^b g/28d
Feed intake d1-d7 [3, 9]: 40.4 ^ab g
Feed intake d8-d14 [3, 9]: 67.8 ^bc g
Feed intake d15-d21 [3, 9]: 77.5 ^bc g
Feed intake d22-d28 [3, 9]: 86.6 ^b g
Live weight d7 [3, 9]: 58.1^ab g
Live weight d14 [3, 9]: 104.2^ab g
Live weight d21 [3, 9]: 141.3^bc g
Live weight d28 [3, 9]: 175.8^bc g
LW Gain [3, 9]: 128.5^bc g
Live weight d0 [3, 9]: 47.3 x g
Feed intake Total [3, 10]: 253 ^b g/28d
Feed intake d1-d7 [3, 10]: 49.6 ^ab g
Feed intake d8-d14 [3, 10]: 61.0 ^b g
Feed intake d15-d21 [3, 10]: 67.9 ^b g
Feed intake d22-d28 [3, 10]: 74.8 ^b g
Live weight d7 [3, 10]: 68.4^ab g
Live weight d14 [3, 10]: 102.4^ab g
Live weight d21 [3, 10]: 132.3^b g
Live weight d28 [3, 10]: 161.9^b g
LW Gain [3, 10]: 114.7^b g
Live weight d0 [3, 10]: 47.2 g
Alkaline Phosphatase activity in plasma ([7]; 10 ppm Zn + 0.4% PA (group II)): 216 ^a mU/ml Plasma
Alkaline Phosphatase activity in plasma [7, 9]: 383 ^b mU/ml Plasma
Alkaline Phosphatase activity in plasma [7, 10]: 347 ^b mU/ml Plasma
Metallothionin concentration in liver tissue ([8]; 10 ppm Zn + 0.4% PA (group II)): 6.36 ng MT/mg Protein
Metallothionin concentration in liver tissue [8, 9]: 8.08 ng MT/mg Protein
Metallothionin concentration in liver tissue [8, 10]: 7.58 ng MT/mg Protein

Structure (SMILES): O=C(O)C(=O)O [oxalic acid]
effects on Zn bioavailability (results of previous studies) [1]: not uniform
